From patent US20240383830A1, “NOVEL CANNABIDIOL DERIVATIVE, METHOD FOR PREPARING SAME, AND COMPOSITION FOR COGNITIVE FUNCTION I[…]” (priority 2021, published 2024)
Read-outs that look alike come from different tables or passages of the source.

Columns and labels:
Assay type in all cases: biochemical
[1] = biological target: Acetylcholinesterase (AChE) (Homo sapiens, UniProt P22303); assay: Acetylcholinesterase inhibition efficiency (acetylthiocholine/DTNB absorbance)
Experimental: (§1) Concentrations of 0, 2, 5, 10, 20, 50, 100, and 200 μM of the synthesized compounds were prepared by dilution in 10% DMSO, 63% phosphate buffer, and 27% tween 80, and 50 μl was dispensed into a 96-well plate. Acetylcholinesterase or butyrylcholinesterase was prepared at 0.5 U/ml, 50 μl was added to a 96-well plate, mixed with the aliquoted compound, and left for 10 minutes. The substrate, acetylthiocholine or butyrylthiocholine, was prepared at 0.4mg/ml, then 50 μl was added to a 96-well plate and left for 20 minutes. Dithionitrobenzoic acid (DTNB) was prepared at 1.2 mg/ml, then 50 μl was added to a 96-well plate and left for 10minutes.

[2] = biological target: Butyrylcholinesterase (BuChE) (Homo sapiens, UniProt P06276); assay: Butyrylcholinesterase inhibition efficiency (butyrylthiocholine/DTNB absorbance)
Experimental: as §1

[3] = biological target: T1, Monoamine oxidase B (MAO-B) (Homo sapiens, UniProt P27338); assay: Monoamine oxidase B inhibition efficiency (kynuramine fluorescence)
T1 sequence (P27338 1-520): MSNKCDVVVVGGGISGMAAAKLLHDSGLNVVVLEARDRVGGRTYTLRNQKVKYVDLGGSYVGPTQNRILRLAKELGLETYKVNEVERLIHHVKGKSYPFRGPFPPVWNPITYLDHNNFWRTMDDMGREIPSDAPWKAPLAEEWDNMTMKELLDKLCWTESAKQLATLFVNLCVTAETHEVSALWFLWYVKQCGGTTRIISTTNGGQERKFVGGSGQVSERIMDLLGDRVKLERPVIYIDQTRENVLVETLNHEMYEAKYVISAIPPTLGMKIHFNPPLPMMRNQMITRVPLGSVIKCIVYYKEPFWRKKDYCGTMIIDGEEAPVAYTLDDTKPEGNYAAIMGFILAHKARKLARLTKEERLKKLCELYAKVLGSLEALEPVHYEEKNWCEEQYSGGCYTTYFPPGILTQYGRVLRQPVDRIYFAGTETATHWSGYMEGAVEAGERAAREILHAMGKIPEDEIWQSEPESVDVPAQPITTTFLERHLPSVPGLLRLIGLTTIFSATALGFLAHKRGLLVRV
Experimental: Samples were prepared by dilution with DMSO to give concentrations of 0, 2, 5, 10, 20, 50, 100, and 200 μM of the compound, and 5 μl was dispensed into a 96-well plate. 135 μl of potassium phosphate buffer (0.1 M, 7.4 pH) was dispensed into a 96-well plate. Monoamine oxidase B was prepared at 40 μl/ml, and 50 μl was added to the 96-well plate, mixed with the dispensed compound, and left for 20 minutes. The substrate, kynuramine solution, was prepared at 100 μM, then 10 μl was added to a 96-well plate and left for 10 min. The reaction was stopped by adding 75 μl of NaOH (2N). For the fluorescence blank experiment, potassium phosphate buffer was added instead of monoamine oxidase B to correct the compound-induced fluorescence intensity values.

[4] = 0.5 U/ml enzyme, butyrylthiocholine substrate, compound 0-200 μM, read-out: IC50 for BuChE
[5] = kynuramine substrate, potassium phosphate buffer pH 7.4, compound 0-200 μM, read-out: IC50 for MAOB
[6] = 0.5 U/ml enzyme, acetylthiocholine substrate, compound 0-200 μM, read-out: IC50 for AChE

Chain of Butyrylcholinesterase (BuChE) (P06276 29-602): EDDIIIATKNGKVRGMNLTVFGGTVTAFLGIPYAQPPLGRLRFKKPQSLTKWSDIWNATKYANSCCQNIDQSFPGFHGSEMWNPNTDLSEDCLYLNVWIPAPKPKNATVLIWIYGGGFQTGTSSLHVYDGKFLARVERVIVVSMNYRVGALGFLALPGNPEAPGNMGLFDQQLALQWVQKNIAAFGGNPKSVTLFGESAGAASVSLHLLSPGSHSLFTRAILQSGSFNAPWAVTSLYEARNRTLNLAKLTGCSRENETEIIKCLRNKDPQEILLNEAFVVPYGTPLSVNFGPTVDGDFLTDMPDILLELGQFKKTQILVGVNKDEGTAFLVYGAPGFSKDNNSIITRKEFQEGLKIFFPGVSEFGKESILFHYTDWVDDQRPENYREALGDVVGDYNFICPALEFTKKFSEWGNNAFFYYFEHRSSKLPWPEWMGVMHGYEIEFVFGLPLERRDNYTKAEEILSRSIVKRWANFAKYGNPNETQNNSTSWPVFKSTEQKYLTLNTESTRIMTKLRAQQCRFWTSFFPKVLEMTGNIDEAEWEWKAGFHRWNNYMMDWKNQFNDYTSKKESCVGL
Chain of Acetylcholinesterase (AChE) (P22303 32-614, species assumed): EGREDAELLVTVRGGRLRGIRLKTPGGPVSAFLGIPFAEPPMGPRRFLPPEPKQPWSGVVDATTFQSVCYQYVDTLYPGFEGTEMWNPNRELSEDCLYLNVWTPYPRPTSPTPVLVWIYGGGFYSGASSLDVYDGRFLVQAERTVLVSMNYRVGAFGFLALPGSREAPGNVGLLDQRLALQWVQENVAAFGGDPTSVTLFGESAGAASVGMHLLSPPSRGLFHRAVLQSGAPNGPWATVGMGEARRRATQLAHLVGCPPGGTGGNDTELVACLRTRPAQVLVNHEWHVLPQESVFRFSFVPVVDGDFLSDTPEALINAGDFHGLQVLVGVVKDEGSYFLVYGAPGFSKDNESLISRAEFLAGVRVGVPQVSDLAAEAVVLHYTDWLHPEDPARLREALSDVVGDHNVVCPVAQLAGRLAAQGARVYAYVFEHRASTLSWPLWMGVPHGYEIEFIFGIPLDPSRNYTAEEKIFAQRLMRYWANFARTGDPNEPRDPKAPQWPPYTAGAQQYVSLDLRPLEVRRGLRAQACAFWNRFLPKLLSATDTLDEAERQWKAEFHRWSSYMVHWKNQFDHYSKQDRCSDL

| Structure (SMILES) | IC50 [1] | IC50 [2] | IC50 [3] | IC50 [2, 4] | IC50 [3, 5] | IC50 [1, 6] |
| --- | --- | --- | --- | --- | --- | --- |
| C=C(C)[C@@H]1CCC(C)=C[C@H]1c1c(C)cc(O)cc1O [compound 1c, (1′R,2′R)-5′,6-dimethyl-2′-(prop-1-en-2-yl)-1′,2′,3′,4′-tetrahydro-[1, 1′-biphenyl]-2,4-diol] | 2.6 µM | 1.7 µM | 24.8 µM |  |  |  |
| C=C(C)[C@@H]1CCC(C)=C[C@H]1c1ccc(O)c(Br)c1O [compound 1m, (1′R,2′R)-3-bromo-5′-methyl-2′-(prop-1-en-2-yl)-1′,2′,3′,4′-tetrahydro-[1, 1′-biphenyl]-2,4-diol] | 42.6 µM |  |  | 44.6 µM | 118 µM |  |
| C=C(C)[C@@H]1CCC(C)=C[C@H]1c1cc(C(=O)NCCc2ccc(O)cc2)c(O)cc1O [compound 1q, (1′R,2′R)-4,6-dihydroxy-N-(4-hydroxyphenethyl)-5′-methyl-2′-(prop-1-en-2-yl)-1′, 2′,3′,4′-tetrahydro-[1,1′-biphenyl]-3-carboxamide] | 7.3 µM |  |  | 3.3 µM | 18.1 µM |  |
| C=C(C)[C@@H]1CCC(C)=C[C@H]1c1c(O)cc(O)cc1Br [compound 1e, (1′R,2′R)-6-bromo-5′-methyl-2′-(prop-1-en-2-yl)-1′,2′,3′,4′-tetrahydro-[1,1′-biphenyl]-2,4-diol] | 20 µM |  |  | 9.3 µM | 26.2 µM |  |
| C=C(C)[C@@H]1CCC(C)=C[C@H]1c1c(O)cc(O)cc1C(C)=O [compound 1p, 1-((1′R,2′R)-4,6-dihydroxy-5′-methyl-2′-(prop-1-en-2-yl)-1′,2′,3′,4′-tetrahydro-[1, 1′-biphenyl]-2-yl) ethan-1-one] |  |  |  | 2 µM | 2.1 µM | 4.6 µM |
| C=C(C)[C@@H]1CCC(C)=C[C@H]1c1c(O)cc(O)cc1CCCCC [compound 1a, (1′R,2′R)-5′-methyl-6-pentyl-2′-(prop-1-en-2-yl)-1′,2′,3′,4′-tetrahydro-[1, 1′-biphenyl]-2,4-diol] | 3.1 µM | 1.7 µM | 44 µM |  |  |  |
| C=C(C)[C@@H]1CCC(C)=C[C@H]1c1cc(C(=O)NCCc2ccc(OC)cc2)c(O)cc1O [compound 1o, (1′R,2′R)-4,6-dihydroxy-N-(4-methoxyphenethyl)-5′-methyl-2′-(prop-1-en-2-yl)-1′, 2′,3′,4′-tetrahydro-[1,1′-biphenyl]-3-carboxamide] |  |  |  | 27.3 µM | 56.1 µM | 15.3 µM |
| C=C(C)[C@@H]1CCC(C)=C[C@H]1c1c(O)cc(O)c(C(C)=O)c1O [compound 1l, 1-((1′R,2′R)-2,4,6-trihydroxy-5′-methyl-2′-(prop-1-en-2-yl)-1′,2′,3′,4′-tetrahydro-[1,1′-biphenyl]-3-yl)ethan-1-one] |  |  |  | 6.6 µM | 7.99 µM | 23.3 µM |
| C=C(C)[C@@H]1CCC(C)=C[C@H]1c1cc(Cl)c(O)cc1O [compound 1f, (1′R,2′R)-5-chloro-5′-methyl-2′-(prop-1-en-2-yl)-1′,2′,3′,4′-tetrahydro-[1, 1′-biphenyl]-2,4-diol] | 20 µM |  |  | 19.3 µM | 29.9 µM |  |
| C=C(C)[C@@H]1CCC(C)=C[C@H]1c1c(O)cc(O)cc1OC [compound 1h, (1′R,2′R)-6-methoxy-5′-methyl-2′-(prop-1-en-2-yl)-1′,2′,3′,4′-tetrahydro-[1, 1′-biphenyl]-2,4-diol] |  |  |  | 55.3 µM | 35.8 µM | 78 µM |
| C=C(C)[C@@H]1CCC(C)=C[C@H]1c1c(O)cc(O)cc1C#N [compound 1g, (1′R,2′R)-4,6-dihydroxy-5′-methyl-2′-(prop-1-en-2-yl)-1′,2′,3′,4′-tetrahydro-[1, 1′-biphenyl]-2-carbonitrile] | 74 µM |  |  | 8.6 µM | 61.1 µM |  |
| C=C(C)[C@H]1CCC(C)=C[C@@H]1c1c(O)cc(OC)c([C@@H]2C=C(C)CC[C@H]2C(=C)C)c1O [compound 1k, (1R,1″S,2R,2″S)-6′-methoxy-5,5″-dimethyl-2,2″-di(prop-1-en-2-yl)-1, 1″,2,2″,3,3″,4,4″-octahydro-[1,1′:3′,1″-terphenyl]-2′,4′-diol] |  |  |  |  |  | 5.3 µM |
| C=C(C)[C@@H]1CCC(C)=C[C@H]1c1ccc(O)c(C(C)=O)c1O [compound 1i, 1-((1′R,2′R)-2,4-dihydroxy-5′-methyl-2′-(prop-1-en-2-yl)-1′,2′,3′,4′-tetrahydro-[1, 1′-biphenyl]-3-yl)ethan-1-one] |  |  |  | 7.3 µM | 16.4 µM | 6.6 µM |
| C=C(C)[C@@H]1CCC(C)=C[C@H]1c1c(O)cc(O)cc1CCc1ccccc1 [compound 1d, (1′R,2′R)-5′-methyl-6-phenethyl-2′-(prop-1-en-2-yl)-1′,2′,3′,4′-tetrahydro-[1, 1′-biphenyl]-2,4-diol] | 3.3 µM | 2.6 µM |  |  |  |  |
| C=C(C)[C@@H]1CCC(C)=C[C@H]1c1ccc(O)c(C(=O)O)c1O [compound 1n, (1′R,2′R)-2,4-dihydroxy-5′-methyl-2′-(prop-1-en-2-yl)-1′,2′,3′,4′-tetrahydro-[1, 1′-biphenyl]-3-carboxylic acid] |  |  |  | 13.3 µM | 30.7 µM | 10.6 µM |
| C=C(C)[C@@H]1CCC(C)=C[C@H]1c1c(O)c(C(C)=O)c(O)c([C@@H]2C=C(C)CC[C@H]2C(=C)C)c1O [compound 1j, 1-((1R,1″R,2R,2″R)-2′,4′,6′-trihydroxy-5,5″-dimethyl-2,2″-di (prop-1-en-2-yl)-1,1″,2,2″,3,3″,4,4″-octahydro-[1,1′:3′,1″-terphenyl]-5′-yl)ethan-1-one] |  |  |  | 30.6 µM | 142 µM | 2 µM |
| C=C(C)[C@@H]1CCC(C)=C[C@H]1c1c(O)cc(O)cc1CCC [compound 1b, (1′R,2′R)-5′-methyl-2′-(prop-1-en-2-yl)-6-propyl-1′,2′,3′,4′-tetrahydro-[1, 1′-biphenyl]-2,4-diol] | 58.2 µM | 4 µM | 31.5 µM |  |  |  |
